For data set [1], the system named is Boophilus microplus. In words: Boophilus microplus - injection test (BOOPMI Inj). It counts as in vivo. The settings on record: application rate 20 μg/animal, injection into engorged adult female cattle ticks. On the procedure:
Boophilus microplus—Injection Test (BOOPMI Inj)
(§1) Solvent: dimethyl sulfoxide
To produce a suitable preparation of active compound, 10 mg of active compound are mixed with 0.5 ml of solvent and the concentrate is diluted with solvent to the desired concentration.
1 μl of the active compound solution is injected into the abdomen of 5 engorged adult female cattle ticks (Boophilus microplus). The animals are transferred into dishes and kept in a climate-controlled room.
The activity is assessed after the desired time by laying of fertile eggs. Eggs which are not visibly fertile are stored in a climate-controlled cabinet until the larvae hatch after about 42 days. An efficacy of 100% means that none of the ticks has laid any fertile eggs; 0% means that all the eggs are fertile.

Data set [2] has as its system Lucilia cuprina. Kind of data set: Lucilia cuprina test (LUCICU). It is filed as in vivo. The settings on record: application rate 100 ppm. The protocol: Lucilia cuprina-Test (LUCICU)
as §1
(§2) To produce a suitable preparation of active compound, 10 mg of active compound are mixed with 0.5 ml of dimethyl sulfoxide, and the concentrate is diluted with water to the desired concentration.
About 20 L1 larvae of the Australian sheep blowfly (Lucilia cuprina) are transferred into a test vessel containing minced horsemeat and the active compound preparation of the desired concentration.
After the desired time, the kill in % is determined. 100% means that all the larvae have been killed; 0% means that no larvae have been killed.

Data set [3] deals with Musca domestica. Kind of data set: Musca domestica test (MUSCDO). It counts as in vivo. On the procedure:
Musca domestica-Test (MUSCDO)
as §1, §2
Vessels containing a sponge treated with sugar solution and the active compound preparation of the desired concentration are populated with 10 adult houseflies (Musca domestica).
After the desired time, the kill in % is determined. 100% means that all of the flies have been killed; 0% means that none of the flies have been killed.

For data set [4], the system named is Phaedon cochleariae. Kind of data set: Phaedon cochleariae - spray test (PHAECO). It counts as in vivo. The settings on record: application rate 100 g/ha, Chinese cabbage leaf disks. In outline: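 Active compound in acetone/dimethylformamide with alkylaryl polyglycol ether emulsifier was diluted with emulsifier-containing water to the test concentration and sprayed. After the set period, efficacy was scored as % larvae killed (100% = all beetle larvae dead, 0% = none).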

Data set [5] can be described thus: log P by HPLC on reversed-phase column (C18), EEC directive 79/831 Annex V.A8. It is filed as physicochemical. As to conditions: HPLC reversed-phase C18, 43° C., data refer to the E isomer. On the procedure: The log P values reported in the tables and Preparation Examples above were determined in accordance with EEC directive 79/831 Annex V.A8 by HPLC (High Performance Liquid Chromatography) using a reversed-phase column (C18). Temperature 43° C. The calibration is effected with unbranched alkan-2-ones (having 3 to 16 carbon atoms), for which the log P values are known.

For data set [6], the system named is Myzus persicae. Kind of data set: Myzus persicae - spray test (MYZUPE). It counts as in vivo. The settings on record: application rate 100 g/ha, Chinese cabbage leaf disks. The method, boiled down:
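Chinese cabbage leaf disks carrying all stages of green peach aphid were sprayed with compound in acetone/DMF with emulsifier, diluted in water. After the chosen period, efficacy was scored as % aphids killed.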

The subject of data set [7] is Spodoptera frugiperda. In words: Spodoptera frugiperda - spray test (SPODFR). It is filed as in vivo. As to conditions: application rate 100 g/ha, maize leaf disks. The method, boiled down: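 Maize leaf disks sprayed with compound in acetone/DMF with alkylaryl polyglycol ether emulsifier, diluted in water to test concentration, then infested with armyworm caterpillars once dry. Efficacy given as % caterpillars killed (100% all, 0% none) after the chosen period.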

For data set [8], the system named is Tetranychus urticae. In words: Tetranychus urticae - spray test, OP-resistant (TETRUR). It counts as in vivo. As to conditions: application rate 100 g/ha, bean leaf disks. On the procedure: Tetranychus urticae—Spray Test, OP-Resistant (TETRUR)
Solvent: 78.0 parts by weight of acetone • • 1.5 parts by weight of dimethylformamide
Emulsifier: 0.5 parts by weight of alkylaryl polyglycol ether
To produce a suitable active compound preparation, 1 part by weight of active compound is mixed with the stated amounts of solvent and emulsifier, and the concentrate is diluted with emulsifier-containing water to the desired concentration.
Disks of bean leaves (Phaseolus vulgaris) infested with all stages of the greenhouse red spider mite (Tetranychus urticae) are sprayed with an active compound preparation of the desired concentration.
After the desired period of time, the efficacy in % is determined. 100% means that all the spider mites have been killed; 0% means that none of the spider mites have been killed.

On to `CON=Cc1cc(C)c(NC(=O)c2cc(C(F)F)nn2-c2ncccc2Cl)c(C(=O)NNC(=O)OC)c1` (mixture of isomers) [A-39], for which the “efficacy (no fertile eggs laid)” value in data set [1] stood at 100%. Besides, in data set [2], the “efficacy (kill of L1 larvae)” value is on record as 100%. For the same compound, the “efficacy (kill of adult houseflies)” value in data set [3] (application rate 100 ppm) came out at 80%. In addition, the “efficacy (beetle larvae killed)” value in data set [4] was determined as 100%. In data set [5] (Table A), this compound yielded a log p of 2.26. Further, in data set [6], the “efficacy (aphids killed)” value is 90%. Also, the “efficacy (caterpillars killed)” value in data set [7] amounted to 100%.
In the case of `CON=Cc1cc(C)c(NC(=O)c2cc(C(F)F)nn2-c2ncccc2Cl)c(C(=O)NN(C)C(=O)OC)c1` (mixture of isomers) [A-41], in data set [1], the “efficacy (no fertile eggs laid)” value is 100%. The “efficacy (kill of L1 larvae)” value in data set [2] is 100%. Further, the “efficacy (kill of adult houseflies)” value in data set [3] (application rate 100 ppm) was 80%. Also, in data set [4], the “efficacy (beetle larvae killed)” value worked out at 100%. In data set [5] (Table A), this compound displayed a log p of 2.46. For the same compound, the “efficacy (aphids killed)” value in data set [6] was 90%. The “efficacy (caterpillars killed)” value in data set [7] is listed as 100%.
Take `CON=Cc1cc(C)c(NC(=O)c2cc(Br)nn2-c2ncccc2Cl)c(C(=O)NNC(=O)OC)c1` (mixture of isomers) [A-42]: in data set [1], the “efficacy (no fertile eggs laid)” value was 100%. Further, in data set [2], the “efficacy (kill of L1 larvae)” value was 100%. In addition, the “efficacy (kill of adult houseflies)” value in data set [3] (application rate 100 ppm) is 80%. For the same compound, the “efficacy (beetle larvae killed)” value in data set [4] is reported as 100%. In addition, in data set [5] (Table A), the log p amounted to 2.38. In data set [6], the “efficacy (aphids killed)” value is 100%. For the same compound, in data set [7], the “efficacy (caterpillars killed)” value was found to be 100%.
As for `CON=Cc1cc(C)c(NC(=O)c2cc(C(F)(F)F)nn2-c2ncccc2Cl)c(C(=O)NC2COC2)c1` (mixture of isomers) [B-02], the “efficacy (no fertile eggs laid)” value in data set [1] is 100%. For the same compound, the “efficacy (spider mites killed)” value in data set [8] is 90%. The “efficacy (kill of L1 larvae)” value in data set [2] is given as 100%. Moreover, the “efficacy (beetle larvae killed)” value in data set [4] was 100%. This compound gave a log p in data set [5] (Table B) of 2.78. In data set [6], the “efficacy (aphids killed)” value is 100%. The “efficacy (caterpillars killed)” value in data set [7] is listed as 100%.
For the compound `CCOC(=O)NNC(=O)c1cc(C=NOC)cc(C)c1NC(=O)c1cc(C(F)(F)F)nn1-c1ncccc1Cl` [A-17], the “efficacy (no fertile eggs laid)” value in data set [1] is 100%. The “efficacy (spider mites killed)” value in data set [8] worked out at 90%. Also, the “efficacy (kill of L1 larvae)” value in data set [2] stood at 100%. Also, in data set [3] (application rate 20 ppm), the “efficacy (kill of adult houseflies)” value came out at 80%. The “efficacy (beetle larvae killed)” value in data set [4] is given as 100%. Besides, in data set [5] (Table A), the log p was 2.92. Besides, in data set [6], the “efficacy (aphids killed)” value came out at 90%. In addition, the “efficacy (caterpillars killed)” value in data set [7] was determined as 100%.
Consider `C#CCOC(=O)NNC(=O)c1cc(C=NOC)cc(C)c1NC(=O)c1cc(C(F)(F)F)nn1-c1ncccc1Cl` [A-22], for which the “efficacy (no fertile eggs laid)” value in data set [1] came out at 100%. Further, the “efficacy (spider mites killed)” value in data set [8] was found to be 100%. In data set [2], the “efficacy (kill of L1 larvae)” value was 100%. Further, the “efficacy (kill of adult houseflies)” value in data set [3] (application rate 20 ppm) is 100%. For the same compound, in data set [4], the “efficacy (beetle larvae killed)” value stood at 100%. Besides, in data set [5] (Table A), the log p turned out to be 2.86. Besides, the “efficacy (aphids killed)” value in data set [6] was determined as 100%. In addition, the “efficacy (caterpillars killed)” value in data set [7] was found to be 100%.
`CON=Cc1cc(C)c(NC(=O)c2cc(OCC(F)F)nn2-c2ncccc2Cl)c(C(=O)NC(C)C)c1` [C-19]: the “efficacy (no fertile eggs laid)” value in data set [1] is recorded as 100%. For the same compound, the “efficacy (kill of L1 larvae)” value in data set [2] is listed as 100%. Besides, the “efficacy (kill of adult houseflies)” value in data set [3] (application rate 20 ppm) is 80%. Besides, the log p in data set [5] (Table C) is listed as 3.07. The “efficacy (aphids killed)” value in data set [6] is on record as 90%. The “efficacy (caterpillars killed)” value in data set [7] was 100%.
Take `CON=Cc1cc(C)c(NC(=O)c2cc(OC)nn2-c2ncccc2Cl)c(C(=O)NC(C)C)c1` [C-24]: the “efficacy (no fertile eggs laid)” value in data set [1] came out at 100%. Moreover, in data set [2], the “efficacy (kill of L1 larvae)” value is 100%. For the same compound, in data set [3] (application rate 100 ppm), the “efficacy (kill of adult houseflies)” value is on record as 100%. For the same compound, the “efficacy (beetle larvae killed)” value in data set [4] is 100%. In addition, in data set [5] (Table C), the log p is 2.65. Moreover, in data set [6], the “efficacy (aphids killed)” value was 100%. The “efficacy (caterpillars killed)” value in data set [7] is 100%.
For the compound `CNC(=O)c1cc(C=NOC)cc(C)c1NC(=O)c1cc(C(F)F)nn1-c1ncccc1Cl` [C-28], the “efficacy (no fertile eggs laid)” value in data set [1] was 100%. For the same compound, the “efficacy (kill of L1 larvae)” value in data set [2] is on record as 100%. Besides, the “efficacy (kill of adult houseflies)” value in data set [3] (application rate 100 ppm) is on record as 80%. The “efficacy (beetle larvae killed)” value in data set [4] was 100%. This compound also showed a log p in data set [5] (Table C) of 2.48. Also, the “efficacy (aphids killed)” value in data set [6] is given as 90%. For the same compound, in data set [7], the “efficacy (caterpillars killed)” value is 100%.
For `CON=Cc1cc(C)c(NC(=O)c2cc(C(F)F)nn2-c2ncccc2Cl)c(C(=O)NC(C)C)c1` [C-29], the “efficacy (no fertile eggs laid)” value in data set [1] was 100%. The “efficacy (kill of L1 larvae)” value in data set [2] was found to be 100%. Moreover, the “efficacy (kill of adult houseflies)” value in data set [3] (application rate 20 ppm) came out at 100%. Also, the “efficacy (beetle larvae killed)” value in data set [4] was found to be 100%. Also, the log p in data set [5] (Table C) stood at 2.98. For the same compound, in data set [6], the “efficacy (aphids killed)” value came to 100%. Besides, the “efficacy (caterpillars killed)” value in data set [7] came out at 100%.
For `CON=Cc1cc(C)c(NC(=O)c2cc(CF)nn2-c2ncccc2Cl)c(C(=O)NC2CC2)c1` [C-42], the “efficacy (no fertile eggs laid)” value in data set [1] was 100%. Besides, the “efficacy (spider mites killed)” value in data set [8] is 100%. Besides, the “efficacy (kill of L1 larvae)” value in data set [2] worked out at 100%. Moreover, in data set [3] (application rate 100 ppm), the “efficacy (kill of adult houseflies)” value is on record as 90%. Also, the “efficacy (beetle larvae killed)” value in data set [4] is listed as 100%. This compound came in with a log p in data set [5] (Table C) of 2.38. In addition, the “efficacy (aphids killed)” value in data set [6] stood at 90%. Moreover, the “efficacy (caterpillars killed)” value in data set [7] amounted to 100%.
